Our source for the inhibition in vivo and inhibition values is patent US20120029016A1, “Indoles Useful in the Treatment of Inflammation” (BIOLIPOX AB, priority 2008, published 2012).

SMILES strings stand for the structures.

The first assay has as its system cysteinyl leukotrienes concentration in the peritoneal lavage. As to the kind of experiment: Mouse peritoneal inflammation model (zymosan ip), cysteinyl leukotrienes in peritoneal lavage by EIA. It is filed as in vivo, Male BALB/c mice. The note with it: 0.5 h, 3 mg/kg ip, 5 min before zymosan, lavage 30 min after zymosan, read-out: %-inhibition of cysteinyl leukotrienes concentration vs vehicle treated mice. How it is done:
The in vivo efficacy of leukotriene biosynthesis inhibitors was assed by using a model of peritoneal inflammation. Male BALB/c mice (weighing 20-25 grams) received an intraperitoneal injection (ip) of 0.5 ml zymosan dissolved in phosphate buffer saline (PBS) (pH 7.5, 1 mg/mL). 5 Minutes before the zymosan injection compounds (1-10 mg/kg) or vehicle were administered ip (10 mL/kg). 30 min after the zymosan injection the mice were anaesthetized and the peritoneal cavity was flushed with 4 mL PBS. The peritoneal lavage was centrifuged at 6000 rcf for 5 minutes and the cysteinyl leukotrienes concentration in the supernatant was determined by EIA. The cysteinyl leukotrienes concentration in the peritoneal lavage from compound treated mice was compared to vehicle treated mice and the % inhibition was calculated.
In the case of `O=C(O)Cc1c(C(=O)O)c2cc(Oc3ccc(OC(F)(F)F)cc3)ccc2n1-c1ccc(OC2CCCCC2)cc1` [Example 4:5, 2-Carboxymethyl-1-(4-cyclohexyloxyphenyl)-5-(4-trifluoromethoxyphenoxy)indole-3-carboxylic acid], the inhibition in vivo at 3 mg/kg was found to be 97%. Same read-out and setting: the same measure for `CC(C)Oc1ccc(Oc2ccc3c(c2)c(C(=O)O)c(CC(=O)O)n3-c2ccc(OCc3ccccn3)cc2)cc1` [Example 1:9, 2-Carboxymethyl-1-5-(4-isopropoxyphenoxy)-[4-(2-pyridinylmethoxy)-phenyl]indole-3-carboxylic acid]: 97%.

Still in this assay, the particulars now being: 0.5 h, 10 mg/kg ip, 5 min before zymosan, lavage 30 min after zymosan, read-out: %-inhibition of cysteinyl leukotrienes concentration vs vehicle treated mice.
With `CC(C)Oc1ccc(Oc2ccc3c(c2)c(C(=O)O)c(CC(=O)O)n3-c2ccc(OC3CCCC3)cc2)cc1` [Example 4:1, 2-Carboxymethyl-1-(4-cyclopentyloxyphenyl)-5-(4-isopropoxyphenoxy)-indole-3-carboxylic acid], the inhibition in vivo at 10 mg/kg was 96%. Turning to `COc1ccc(COc2ccc(-n3c(CC(=O)O)c(C(=O)O)c4cc(Oc5ccc(OC(C)C)cc5)ccc43)cc2)cc1` [Example 1:5, 2-Carboxymethyl-1-5-(4-isopropoxyphenoxy)-[4-(4-methoxybenzyloxy)-phenyl]indole-3-carboxylic acid], the inhibition in vivo at 10 mg/kg was 92%.

In the next assay the target is T1, Recombinant human LTC4 synthase (Homo sapiens, UniProt Q16873).
T1 construct: made in house; host or cells: Pichia pastoris ('Piccia pastoralis' [sic])
T1 sequence (Q16873 1-150): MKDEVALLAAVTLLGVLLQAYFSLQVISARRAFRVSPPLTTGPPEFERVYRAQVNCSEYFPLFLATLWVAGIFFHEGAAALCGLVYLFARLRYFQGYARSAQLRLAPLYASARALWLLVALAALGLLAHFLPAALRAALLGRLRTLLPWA
As to the kind of experiment: In vitro assay Method B: LTC4 synthase, LTA4 to LTC4, HTRF detection. It is filed as biochemical. The note with it: total concentration of title compound 10 μM, read-out: % inh. of LTC4 synthase. How it is done: In the assay, LTC4 synthase catalyses the reaction where the substrate LTA4 is converted to LTC4. Recombinant human LTC4 synthase is expressed in Piccia pastoralis and the purified enzyme is dissolved in 25 mM Tris-buffer pH 7.8 and stored at −20° C. The assay is performed in phosphate buffered saline (PBS) pH 7.4, supplemented with 5 mM glutathione (GSH). The assay is performed at rt in 384-well plates. Analysis of the formed LTC4 is performed using costume made homogenous time-resolved fluorescence (HTRF) detection (Cisbio).
The following is added chronologically to each well: • 1. 50 μL assay buffer, PBS with 5 mM GSH. • 2. 0.5 μL inhibitor in DMSO. • 3. 2 μl LTC4 synthase in PBS. The total protein concentration in this solution is 0.025 mg/ml. Incubation of the plate at rt for 10 min. • 4. 1-1.5 μL LTA4 (final conc. 2.5 μM). Incubation of the plate at rt for 1 min. 10 μL of the incubation mixture is analysed using HTRF detection.
With `CC(C)Oc1ccc(Oc2ccc3c(c2)c(C(=O)O)c(CC(=O)O)n3-c2ccc(Oc3cccc(Cl)c3)cc2)cc1` [3:2, 2-Carboxymethyl-1-[4-(3-chlorophenoxy)phenyl]-5-(4-isopropoxy-phenoxy)indole-3-carboxylic acid], the inhibition at 10 µM turned out to be 97%. Still for that read-out and setting: the result for `CCCCCCCCNc1ccc(-n2c(CC(=O)O)c(C(=O)O)c3cc(Oc4ccc(OC(F)(F)F)cc4)ccc32)cc1` [6:7, 2-Carboxymethyl-1-(4-octylaminophenyl)-5-(4-trifluoromethoxyphenoxy)-indole-3-carboxylic acid] reads 98%.

As to `CC(C)Oc1ccc(Oc2ccc3c(c2)c(C(=O)O)c(CC(=O)O)n3-c2ccc(OC3CCCC3)cc2)cc1` [Example 4:1, 2-Carboxymethyl-1-(4-cyclopentyloxyphenyl)-5-(4-isopropoxyphenoxy)-indole-3-carboxylic acid], the inhibition at 10 µM was found to be 98%.

Turning to `O=C(O)Cc1c(C(=O)O)c2cc(Oc3ccc(OC4CCCC4)cc3)ccc2n1-c1ccc(OC2CCCC2)cc1` [4:3, 2-Carboxymethyl-5-(4-cyclopentyloxyphenoxy)-1-(4-cyclopentyloxyphenyl)indole-3-carboxylic acid], the inhibition at 10 µM was 97%. Same read-out and setting: the same measure for `CC(C)Oc1ccc(Oc2ccc3c(c2)c(C(=O)O)c(CC(=O)O)n3-c2ccc(OCc3ccc(Cl)cc3)cc2)cc1` [1:6, 2-Carboxymethyl-1-[4-(4-chlorobenzyloxy)phenyl]-5-(4-isopropoxy-phenoxy)indole-3-carboxylic acid]: 95%; for `O=C(O)Cc1c(C(=O)O)c2cc(Oc3ccc(OC(F)(F)F)cc3)ccc2n1-c1ccc(OC2CCCCC2)cc1` [Example 4:5, 2-Carboxymethyl-1-(4-cyclohexyloxyphenyl)-5-(4-trifluoromethoxyphenoxy)indole-3-carboxylic acid]: 99%; for `CCN(c1ccccc1)c1ccc(-n2c(CC(=O)O)c(C(=O)O)c3cc(Oc4ccc(OC(F)(F)F)cc4)ccc32)cc1` [6:3, 2-Carboxymethyl-1-{4-[ethyl(phenyl)amino]phenyl}-5-(4-trifluoromethoxy-phenoxy)indole-3-carboxylic acid]: 100%. The same measure, in the same setting: the same measure for `CC(C)Oc1ccc(Oc2ccc3c(c2)c(C(=O)O)c(CC(=O)O)n3-c2ccc(OCc3ccccc3Cl)cc2)cc1` [1:3, 2-Carboxymethyl-1-[4-(2-chlorobenzyloxy)phenyl]-5-(4-isopropoxy-phenoxy)indole-3-carboxylic acid]: 95%. On the same count and under the same terms, the same measure for `CC(C)Oc1ccc(Oc2ccc3c(c2)c(C(=O)O)c(CC(=O)O)n3-c2ccc(OC3CCC(C)(C)CC3)cc2)cc1` [Example 5:1, 2-Carboxymethyl-1-[4-(4,4-dimethylcyclohexyloxy)phenyl]-5-(4-isopropoxyphenoxy)indole-3-carboxylic acid]: 97%. In the case of `O=C(O)Cc1c(C(=O)O)c2cc(Oc3ccc(OC4CC4)cc3)ccc2n1-c1ccc(OC2CCCC2)cc1` [4:4, 2-Carboxymethyl-1-(4-cyclopentyloxyphenyl)-5-(4-cyclopropoxyphenoxy)-indole-3-carboxylic acid], the inhibition at 10 µM came out at 98%.

On to `COc1ccc(COc2ccc(-n3c(CC(=O)O)c(C(=O)O)c4cc(Oc5ccc(OC(C)C)cc5)ccc43)cc2)cc1` [Example 1:5, 2-Carboxymethyl-1-5-(4-isopropoxyphenoxy)-[4-(4-methoxybenzyloxy)-phenyl]indole-3-carboxylic acid], for which the inhibition at 10 µM was 97%. The same measure, in the same setting: the result for `CC(C)Oc1ccc(Oc2ccc3c(c2)c(C(=O)O)c(CC(=O)O)n3-c2ccc(Oc3ccccc3Cl)cc2)cc1` [3:4, 2-Carboxymethyl-1-[4-(2-chlorophenoxy)phenyl]-5-(4-isopropoxy-phenoxy)indole-3-carboxylic acid] reads 9%. Regarding `Cc1ccc(COc2ccc(-n3c(CC(=O)O)c(C(=O)O)c4cc(Oc5ccc(OC(C)C)cc5)ccc43)cc2)cc1` [Example 1:2, 2-Carboxymethyl-5-(4-isopropoxyphenoxy)-1-(4-(4-methylbenzyloxy)phenyl)indole-3-carboxylic acid], the inhibition at 10 µM is 96%. Turning to `CC(C)Oc1ccc(Oc2ccc3c(c2)c(C(=O)O)c(CC(=O)O)n3-c2ccc(OC3CC4CCC3C4)cc2)cc1` (stereo not drawn) [5:3, 2-Carboxymethyl-5-(4-isopropoxyphenoxy)-1-[4-(2-norbomanyloxy)-phenyl]indole-3-carboxylic acid], the inhibition at 10 µM is 95%. Still for that read-out and setting: the result for `CCN(c1ccc(-n2c(CC(=O)O)c(C(=O)O)c3cc(Oc4ccc(OC(F)(F)F)cc4)ccc32)cc1)c1cccc(C)c1` [6:4, 2-Carboxymethyl-1-{4-[ethyl(m-tolyl)amino]phenyl}-5-(4-trifluoromethoxy-phenoxy)indole-3-carboxylic acid] reads 94%. Regarding `CC(C)Oc1ccc(Oc2ccc3c(c2)c(C(=O)O)c(CC(=O)O)n3-c2ccc(OCc3ccccn3)cc2)cc1` [Example 1:9, 2-Carboxymethyl-1-5-(4-isopropoxyphenoxy)-[4-(2-pyridinylmethoxy)-phenyl]indole-3-carboxylic acid], the inhibition at 10 µM was 98%. Take `O=C(O)Cc1c(C(=O)O)c2cc(Oc3ccc(OC(F)(F)F)cc3)ccc2n1-c1ccc(OC2CCCC2)cc1` [4:2, 2-Carboxymethyl-1-(4-cyclopentyloxyphenyl)-5-(4-trifluoromethoxyphenoxy)indole-3-carboxylic acid]: the inhibition at 10 µM was determined as 100%. Still for that read-out and setting: the result for `CC(C)Oc1ccc(Oc2ccc3c(c2)c(C(=O)O)c(CC(=O)O)n3-c2ccc(OCc3ccc(Cl)c(Cl)c3)cc2)cc1` [1:4, 2-Carboxymethyl-1-[4-(3,4-dichlorobenzyloxy)phenyl]-5-(4-isopropoxyphenoxy)indole-3-carboxylic acid] reads 93%; that for `CC(C)Oc1ccc(Oc2ccc3c(c2)c(C(=O)O)c(CC(=O)O)n3-c2ccc(OCc3ccc(Cl)nc3)cc2)cc1` [1:11, 2-Carboxymethyl-1-[4-(6-chloro-3-pyridinylmethoxy)phenyl]-5-(4-isopropoxyphenoxy)indole-3-carboxylic acid], 99%.

In the case of `O=C(O)Cc1c(C(=O)O)c2cc(Oc3ccc(OC(F)(F)F)cc3)ccc2n1-c1ccc(NCc2cccnc2)cc1` [6:1, 2-Carboxymethyl-1-[4-(3-pyridinylmethylamino)phenyl]-5-(4-trifluoromethoxyphenoxy)indole-3-carboxylic acid], the inhibition at 10 µM amounted to 100%. The same measure, in the same setting: the same measure for `O=C(O)Cc1c(C(=O)O)c2cc(Oc3ccc(OC(F)(F)F)cc3)ccc2n1-c1ccc(NCC2CCCCC2)cc1` [6:6, 2-Carboxymethyl-1-(4-cyclohexylmethylaminophenyl)-5-(4-trifluoro-methoxyphenoxy)indole-3-carboxylic acid]: 97%.

Take `O=C(O)Cc1c(C(=O)O)c2cc(Oc3ccc(OC(F)(F)F)cc3)ccc2n1-c1ccc(Nc2cccc3c2CCCC3)cc1` [6:8, 2-Carboxymethyl-1-[4-(5,6,7,8-tetrahydro-1-naphthylamino)phenyl]-5-(4-trifluoromethoxyphenoxy)indole-3-carboxylic acid]: the inhibition at 10 µM is 97%. On to `O=C(O)Cc1c(C(=O)O)c2cc(Oc3ccc(OC(F)(F)F)cc3)ccc2n1-c1ccc(NCc2ccccc2)cc1` [6:9, 1-(4-benzylaminophenyl)-2-carboxymethyl-5-(4-trifluoromethoxy-phenoxy)indole-3-carboxylic acid], for which the inhibition at 10 µM came out at 100%.

Consider `O=C(O)Cc1c(C(=O)O)c2cc(Oc3ccc(OC(F)(F)F)cc3)ccc2n1-c1ccc(NC2CCCC2)cc1` [6:5, 2-Carboxymethyl-1-(4-cyclopentylaminophenyl)-5-(4-trifluoromethoxy-phenoxy)indole-3-carboxylic acid], for which the inhibition at 10 µM came out at 100%. The same measure, in the same setting: the result for `CC(C)Oc1ccc(Oc2ccc3c(c2)c(C(=O)O)c(CC(=O)O)n3-c2ccc(OCc3cccc(Cl)c3)cc2)cc1` [1:7, 2-Carboxymethyl-1-[4-(3-chlorobenzyloxy)phenyl]-5-(4-isopropoxy-phenoxy)indole-3-carboxylic acid] reads 94%.

In the case of `O=C(O)Cc1c(C(=O)O)c2cc(Oc3ccc(OC(F)(F)F)cc3)ccc2n1-c1ccc(NCc2ccc(Cl)nc2)cc1` [Example 6:2, 2-Carboxymethyl-1-{4-[(6-chloro-3-pyridinylmethyl)amino]phenyl}-5-(4-trifluoromethoxyphenoxy)indole-3-carboxylic acid], the inhibition at 10 µM turned out to be 95%.
